According to US12492188B2, “1H-benzo[D]imidazole derivatives as TLR9 inhibitors for the treatment of fibrosis” (BRISTOL-MYERS SQUIBB COMPANY, priority 2020, dated 2025):
Read-outs that look alike come from different tables or passages of the source.

Experiments:
Assay type in all cases: cell-based
human TLR8 = target: T1, human TLR8 (Homo sapiens, UniProt Q9NR97); test: TLR8 inhibition reporter assay (HEK-Blue cells, secreted embryonic alkaline phosphatase reporter); conditions: HEK-Blue cells overexpressing human TLR8, stimulated with R848 15.9 μM; read-out: TLR 8 IC50
T1 construct: host or cells: HEK-Blue cells (HEK293-derived reporter line)
T1 sequence (Q9NR97 27-1041): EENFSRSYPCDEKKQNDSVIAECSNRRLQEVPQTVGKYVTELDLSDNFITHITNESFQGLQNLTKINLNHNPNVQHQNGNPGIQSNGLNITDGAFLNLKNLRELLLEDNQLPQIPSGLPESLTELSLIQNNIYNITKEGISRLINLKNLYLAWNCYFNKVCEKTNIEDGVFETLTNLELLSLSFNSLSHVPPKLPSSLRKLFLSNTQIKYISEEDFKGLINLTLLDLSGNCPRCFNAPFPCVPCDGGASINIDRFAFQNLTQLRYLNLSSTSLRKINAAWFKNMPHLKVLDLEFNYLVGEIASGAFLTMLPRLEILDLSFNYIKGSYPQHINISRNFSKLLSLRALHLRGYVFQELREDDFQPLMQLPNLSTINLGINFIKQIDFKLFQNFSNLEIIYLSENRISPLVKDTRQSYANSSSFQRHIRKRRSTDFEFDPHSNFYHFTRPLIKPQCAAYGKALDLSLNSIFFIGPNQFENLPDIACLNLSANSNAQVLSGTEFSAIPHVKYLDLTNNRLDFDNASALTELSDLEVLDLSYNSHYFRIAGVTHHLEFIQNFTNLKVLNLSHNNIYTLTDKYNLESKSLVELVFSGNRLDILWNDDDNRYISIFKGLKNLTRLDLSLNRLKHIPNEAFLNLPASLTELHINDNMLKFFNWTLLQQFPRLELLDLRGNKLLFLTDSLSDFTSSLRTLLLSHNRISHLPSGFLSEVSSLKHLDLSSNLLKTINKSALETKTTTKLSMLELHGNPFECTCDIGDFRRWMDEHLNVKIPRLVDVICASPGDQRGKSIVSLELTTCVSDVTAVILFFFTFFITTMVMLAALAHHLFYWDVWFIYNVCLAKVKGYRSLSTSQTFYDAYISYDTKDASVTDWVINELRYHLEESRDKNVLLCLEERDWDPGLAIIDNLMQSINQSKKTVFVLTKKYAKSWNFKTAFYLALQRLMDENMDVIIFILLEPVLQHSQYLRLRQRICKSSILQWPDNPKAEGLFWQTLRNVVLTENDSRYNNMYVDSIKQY
Procedure, shortened: (§1)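 Read-out is SEAP colour from HEK-Blue Detection medium after 22 h at 37 °C, converted to percent inhibition between agonist-plus-DMSO and reference-inhibitor wells. Receptor-overexpressing HEK-Blue cells received compound over 0.05 nM–50 μM for 30 min before agonist: gardiquimod 7.5 μM for TLR7, R848 15.9 μM for TLR8, ODN2006 5 nM for TLR9.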

human TLR7 = target: T2, human TLR7 (Homo sapiens, UniProt Q9NYK1); test: TLR7 inhibition reporter assay (HEK-Blue cells, secreted embryonic alkaline phosphatase reporter); conditions: HEK-Blue cells overexpressing human TLR7, stimulated with gardiquimod 7.5 μM; read-out: TLR 7 IC50
T2 construct: host or cells: HEK-Blue cells (HEK293-derived reporter line)
T2 sequence (Q9NYK1 27-1049): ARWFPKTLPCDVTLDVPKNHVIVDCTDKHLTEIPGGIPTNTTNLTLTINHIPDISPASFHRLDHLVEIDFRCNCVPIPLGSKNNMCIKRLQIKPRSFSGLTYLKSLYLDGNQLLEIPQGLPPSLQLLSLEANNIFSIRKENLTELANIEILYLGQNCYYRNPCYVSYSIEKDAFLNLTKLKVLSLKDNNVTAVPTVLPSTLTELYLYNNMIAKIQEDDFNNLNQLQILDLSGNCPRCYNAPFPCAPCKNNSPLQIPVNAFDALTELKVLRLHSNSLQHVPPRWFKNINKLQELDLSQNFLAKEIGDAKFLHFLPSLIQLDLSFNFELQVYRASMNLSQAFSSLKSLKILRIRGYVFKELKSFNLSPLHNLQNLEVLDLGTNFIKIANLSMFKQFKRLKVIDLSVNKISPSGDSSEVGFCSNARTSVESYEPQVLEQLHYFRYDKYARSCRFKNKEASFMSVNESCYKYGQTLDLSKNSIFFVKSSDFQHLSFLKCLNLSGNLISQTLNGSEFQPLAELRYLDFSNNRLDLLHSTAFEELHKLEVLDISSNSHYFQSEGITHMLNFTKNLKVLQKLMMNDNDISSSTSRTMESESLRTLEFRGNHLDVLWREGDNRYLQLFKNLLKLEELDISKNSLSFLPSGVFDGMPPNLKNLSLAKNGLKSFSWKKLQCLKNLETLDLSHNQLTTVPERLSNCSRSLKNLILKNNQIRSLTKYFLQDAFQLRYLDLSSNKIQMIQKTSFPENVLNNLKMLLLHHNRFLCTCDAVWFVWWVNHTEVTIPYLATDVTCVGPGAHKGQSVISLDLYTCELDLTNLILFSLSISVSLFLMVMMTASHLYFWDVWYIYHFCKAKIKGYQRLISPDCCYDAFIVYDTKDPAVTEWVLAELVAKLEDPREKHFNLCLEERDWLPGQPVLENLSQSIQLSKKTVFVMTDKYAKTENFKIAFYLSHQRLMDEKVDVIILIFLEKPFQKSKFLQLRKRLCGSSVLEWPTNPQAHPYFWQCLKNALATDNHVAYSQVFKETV
Procedure, shortened: as §1

human TLR9 = target: T3, human TLR9 (Homo sapiens, UniProt Q9NR96); test: TLR9 inhibition reporter assay (HEK-Blue cells, secreted embryonic alkaline phosphatase reporter)
T3 construct: host or cells: HEK-Blue cells (HEK293-derived reporter line)
T3 sequence (Q9NR96 26-1032): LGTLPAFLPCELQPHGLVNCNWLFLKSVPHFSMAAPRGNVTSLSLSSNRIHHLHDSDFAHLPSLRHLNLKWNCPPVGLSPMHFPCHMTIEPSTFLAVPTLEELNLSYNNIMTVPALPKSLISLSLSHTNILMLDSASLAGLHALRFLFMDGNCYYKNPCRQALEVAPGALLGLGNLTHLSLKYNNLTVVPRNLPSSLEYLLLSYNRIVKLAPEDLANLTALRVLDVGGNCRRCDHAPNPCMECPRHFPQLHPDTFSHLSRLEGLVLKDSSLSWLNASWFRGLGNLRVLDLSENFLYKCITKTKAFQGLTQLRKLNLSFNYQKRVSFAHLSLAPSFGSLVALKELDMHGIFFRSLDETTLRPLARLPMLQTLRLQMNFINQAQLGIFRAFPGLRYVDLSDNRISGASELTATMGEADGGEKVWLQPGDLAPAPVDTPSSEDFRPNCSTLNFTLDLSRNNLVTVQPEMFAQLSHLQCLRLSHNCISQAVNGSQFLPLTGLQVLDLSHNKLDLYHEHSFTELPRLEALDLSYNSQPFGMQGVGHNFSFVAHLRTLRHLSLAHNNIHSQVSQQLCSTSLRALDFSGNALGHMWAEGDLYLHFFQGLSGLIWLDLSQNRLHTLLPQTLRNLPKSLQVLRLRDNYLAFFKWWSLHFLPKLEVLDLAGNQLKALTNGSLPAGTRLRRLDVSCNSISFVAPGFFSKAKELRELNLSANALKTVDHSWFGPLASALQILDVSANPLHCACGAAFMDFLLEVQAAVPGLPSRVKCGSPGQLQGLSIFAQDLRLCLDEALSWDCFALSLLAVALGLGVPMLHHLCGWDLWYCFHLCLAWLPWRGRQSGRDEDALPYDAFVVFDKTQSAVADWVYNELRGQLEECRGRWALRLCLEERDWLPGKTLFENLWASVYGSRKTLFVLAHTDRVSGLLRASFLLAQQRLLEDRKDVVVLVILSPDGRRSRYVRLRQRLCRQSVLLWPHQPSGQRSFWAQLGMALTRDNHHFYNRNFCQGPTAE
Procedure, shortened: as §1

[1] = HEK-Blue cells overexpressing human TLR9, stimulated with ODN2006 5 nM, read-out: TLR 9 IC50
[2] = HEK-Blue human TLR9 reporter cells
[3] = HEK-Blue cells overexpressing human TLR9, stimulated with ODN2006 5 nM, 22 hour incubation, reporter readout

IC50 (human TLR8) [nM]	IC50 (human TLR7) [nM]	IC50 (human TLR9; [1]) [nM]	IC50 (human TLR9; [2]) [nM]	IC50 (human TLR9; [3]) [nM]	IC50 (human TLR9) [nM]	SMILES
> 50000	1500	42	42			CS(=O)(=O)c1ccc(-c2nc3c(F)cc(C4CCN(C5CC6CCC(C5)N6CC5CC5)CC4)cc3n2C2CC2)cc1 (single isomer, unassigned) [Example 324, 1-cyclopropyl-6-(1-(8-(cyclopropylmethyl)-8-azabicyclo[3.2.1]octan-3-yl)piperidin-4-yl)-4-fluoro-2-(4-(methylsulfonyl)phenyl)-1H-benzo[d]imidazole]
> 50000	9500	17	17			Cc1cc(C2CCN(C3CCCN(C4CCOCC4)CC3)CC2)cc2c1nc(-c1ccc(S(C)(=O)=O)cc1)n2C (single isomer, unassigned) [Example 306, 1,4-dimethyl-2-(4-(methylsulfonyl)phenyl)-6-(1-(1-(tetrahydro-2H-pyran-4-yl)azepan-4-yl)piperidin-4-yl)-1H-benzo[d]imidazole]
> 50000	> 50000	130	130			Cc1cc(C2CCN(C3CC4CCC(C3)N4CC3CC3)CC2)cc2[nH]c(-c3ccc(S(C)(=O)=O)cc3)nc12 (centres unmarked) [Example 335, 6-(1-(8-(cyclopropylmethyl)-8-azabicyclo[3.2.1]octan-3-yl)piperidin-4-yl)-4-methyl-2-(4-(methylsulfonyl)phenyl)-1H-benzo[d]imidazole]
5100	1400			54		Cc1cc(-c2ccc(CN3CCC(N4CCCC4)CC3)cc2)cc2c1nc(-c1ccc(S(C)(=O)=O)cc1)n2C1CC1 [Example 372, 1-cyclopropyl-4-methyl-2-(4-(methylsulfonyl)phenyl)-6-(4-((4-(pyrrolidin-1-yl)piperidin-1-yl)methyl)phenyl)-1H-benzo[d]imidazole]
> 50000	3200	29	29			Cn1c(-c2ccc(S(C)(=O)=O)cc2)nc2c(F)cc(C3CCN(C4CC5CCC(C4)N5C4CCOCC4)CC3)cc21 (single isomer, unassigned) [Example 289, 4-fluoro-1-methyl-2-(4-(methylsulfonyl)phenyl)-6-(1-(8-(tetrahydro-2H-pyran-4-yl)-8-azabicyclo[3.2.1]octan-3-yl)piperidin-4-yl)-1H-benzo[d]imidazole]

Second part, the molecule before the results:

SMILES	IC50 (human TLR8) [nM]	IC50 (human TLR7) [nM]	IC50 (human TLR9; [1]) [nM]	IC50 (human TLR9; [2]) [nM]	IC50 (human TLR9; [3]) [nM]	IC50 (human TLR9) [nM]
COc1ccc(-c2nc3c(C)cc(C4CCN(C5CC6(C5)CN(C(C)C)C6)CC4)cc3[nH]2)cc1OC [Example 12, 2-(3,4-dimethoxyphenyl)-6-(1-(2-isopropyl-2-azaspiro[3.3]heptan-6-yl)piperidin-4-yl)-4-methyl-1H-benzo[d]imidazole]	> 50000	22000			60	
COCCN1CCC(N2CCC(c3ccc4nc(-c5ccc(S(C)(=O)=O)cc5)n(C)c4c3F)CC2)CC1 [Example 265, 7-fluoro-6-(1′-(2-methoxyethyl)-[1,4′-bipiperidin]-4-yl)-1-methyl-2-(4-(methylsulfonyl)phenyl)-1H-benzo[d]imidazole]	> 50000	7600	1040			1000
COCCN1C2CCC1CC(N1CCC(c3cc4c(cc3F)nc(-c3ccc(S(C)(=O)=O)cc3)n4C)CC1)C2 (single isomer, unassigned) [Example 239, 5-fluoro-6-(1-(8-(2-methoxyethyl)-8-azabicyclo[3.2.1]octan-3-yl)piperidin-4-yl)-1-methyl-2-(4-(methylsulfonyl)phenyl)-1H-benzo[d]imidazole]	> 50000	≥ 51200	290			290
CC(C)N1C2CCC1CC(N1CCC(c3cc(F)c4c(c3)nc(-c3ccc(S(C)(=O)=O)cc3)n4C)CC1)C2 (single isomer, unassigned) [Example 93, 7-fluoro-5-(1-(8-isopropyl-8-azabicyclo[3.2.1]octan-3-yl)piperidin-4-yl)-1-methyl-2-(4-(methylsulfonyl)phenyl)-1H-benzo[d]imidazole]	> 50000	> 50000			650	
Cn1c(-c2ccc(S(C)(=O)=O)cc2)nc2cc(C3CCN(C4CC5CCC(C4)N5C4CCC4)CC3)c(F)cc21 (centres unmarked) [Example 251, 5-(1-(8-cyclobutyl-8-azabicyclo[3.2.1]octan-3-yl)piperidin-4-yl)-6-fluoro-1-methyl-2-(4-(methylsulfonyl)phenyl)-1H-benzo[d]imidazole]	> 50000	19500	71			71
Cn1c(-c2ccc(S(C)(=O)=O)cc2)nc2ccc(C3CCN(C4CCN(C5CCOCC5)CC4)CC3)c(F)c21 [Example 264, 7-fluoro-1-methyl-2-(4-(methylsulfonyl)phenyl)-6-(1′-(tetrahydro-2H-pyran-4-yl)-[1,4′-bipiperidin]-4-yl)-1H-benzo[d]imidazole]	20700	2300	281			280
